Experimental data: patent US5204361A, “Method for treating laminitis in equine livestock” (priority 1988, dated 1993)

Experiments:
Type in all cases: cell-based, horse
[1] = tested on: caecal/large colon digesta; experiment: Experiment 2 Part 2: in vitro fermentation with cornstarch, antibiotics at or below 2 ug/ml; conditions: for L-lactate / pH: cornstarch 0.75 g per flask, 16 hours, mean
Procedure: (§1) Digesta was taken from the caecum and large colon from recently slaughtered animals and was filtered through nylon gauze (approximately 60 micron apertures). The fluid was diluted 1:1 with a buffer solution described by Bales et al. (1976) and incubated with wheat "corn starch" (with or without antibiotics) at 37° for 16 to 20 hours. Aliquots of digesta diluted with buffer (50 ml) were added to 100 ml conical flasks. The flasks were flushed with carbon dioxide before being sealed with a tightly fitting rubber cap. A 21 gauge needle was inserted through the rubber seal in order to allow gas to escape during the fermentation. On removal from the incubator sub-samples were immediately taken to measure L-lactic acid concentration and pH. For each treatment or level of antibiotic three replicate incubation flasks were used.
Incubation flasks were set up as described above with cornstarch (0.75 g) containing virginiamycin, flavomycin or zinc-bacitracin a levels to provide: 0, 0.25, 0.5, 1.0 and 2 ug antibiotic/ml incubation mixture. These flasks were incubated for 16 hours. Flasks were also set up with 0.75 g cornstarch and no antibiotic equipped with a tap and sampling tube in order to take samples from the incubation vessels at various times during the fermentation. Samples were taken at the start of the incubation and at 2, 4, 6, 8, 12 and 24 h. These were analysed for L-lactate concentration and pH.

[2] = tested on: caecal/large colon digesta; experiment: Experiment 2 Part 5: efficacy of tylosin relative to virginiamycin, digesta incubated with glucose; conditions: digesta incubated with glucose, 37°, 20 hours, mean
Procedure: An in vitro fermentation experiment was conducted to determine the efficacy of tylosin relative to virginiamycin. Samples of strained caecal and large colon digesta (16 ml) were incubated with glucose solution (60 ug/ml) (4 ml) and varying concentrations of either tylosin or virginiamycin representing […], 2.0, 4.0 ug of tylosin or virginiamycin per ml. The 25 ml containers were incubated at 37° for 20 hours. There were three replicates per treatment.

[3] = tested on: caecal and large colon digesta; experiment: Experiment 2 Part 4: digesta of virginiamycin-fed horses incubated with cornstarch; conditions: for L-lactate, incubated digesta / pH, incubated digesta: digesta of virginiamycin-fed horses incubated 20 hours with cornstarch 15 mg/ml, n = 5, mean
Procedure: as §1
A total of ten horses were used for this experiment. Five horses were offered 5 kg of a pelleted mixture (ground wheat 92.5%, ground lucerne chaff 5% and `Stafac 20` 2.5% to supply approximately 2.5 g virginiamycin. A further 5 horses were offered the same feed but without virginiamycin. Samples of caecal and large colon digesta were taken for analysis of pH, VFA, virginiamycin and L-lactate. Samples were also prepared as described above with buffer solution and incubated (1 flask/sample) with cornstarch (15 mg/ml diluted digesta). Following 20 hours incubation samples were taken for analysis of L-lactate and pH.

[4] = tested on: caecal/large colon digesta; experiment: Experiment 2 Part 6: therapeutic use, virginiamycin added after the start of fermentation; conditions: virginiamycin 10 ug/ml added at 4, 8 or 12 h; total 24 h; FIG. 6
Procedure: An in vitro experiment was conducted to determine whether by adding the virginiamycin after the start of fermentation of caecal digesta and glucose subsequent lactic acid production could still be prevented.
Samples of caecal/large colon digesta were prepared as described above (Part 5) but with the following treatments (3 replicates/treatment):
(a) Control--incubated for 24 h;
(b) Sampled after 4 h and virginiamycin added before incubating for a total of 24 h;
(c) As for (b) but with sampling etc at 8 h; and
(d) As for (b) but sampling etc after 12 h. Virginiamycin was added to provide 10 ug/ml.

virginiamycin showed a L-lactate ([1]; antibiotic 0.25 μg/ml) of 28.4 mmol/L, a pH ([1]; antibiotic 0.25 μg/ml) of 5.45 and a L-lactate ([1]; antibiotic 0.50 μg/ml) of 28.8 mmol/L. For the same substance, the pH ([1]; antibiotic 0.50 μg/ml) was 5.44, the L-lactate ([1]; antibiotic 1.00 μg/ml) was 3.2 mmol/L and the pH ([1]; antibiotic 1.00 μg/ml) was 5.66. For the same substance, the L-lactate ([1]; antibiotic 2.00 μg/ml) was 1.4 mmol/L, the pH ([1]; antibiotic 2.00 μg/ml) was 5.78 and the “control of lactic acid compared with the other antibiotics” value ([1]; at concentrations of 1 ug/ml) was “best control of lactic acid”. For the same substance, the L-lactate ([2]; antibiotic 0.50 μg/ml) was 25 mmol/L, the L-lactate ([2]; antibiotic 2.00 μg/ml) was 11.0 mmol/L and the L-lactate ([2]; antibiotic 4.00 μg/ml) was 7.7 mmol/L. The “L-lactate, incubated digesta” value ([3]; Caecum) was 5.5 mmol/L, the “pH, incubated digesta” value ([3]; Caecum) was 5.2 and the “L-lactate, incubated digesta” value ([3]; Colon) was 1.8 mmol/L. The “pH, incubated digesta” value ([3]; Colon) was 5.3, the “lactic acid produced following incubation with cornstarch versus controls” value ([3]; digesta from animals that had consumed virginiamycin, p<0.001) was “significantly less” and the “pH in the incubated digesta versus controls” value ([3]; digesta from animals that had received virginiamycin) was “higher pH”. The “time after the start of glucose fermentation at which addition of virginiamycin still prevents the build up of lactic acid” value [4] was “up to 8 h”.
